# Test results from patent US10905683B2, “Compositions and uses of amidine derivatives” (BIOCRYST PHARMACEUTICALS, INC., priority 2014, dated 2021).
# Several values for one entry are separate records, joined by “and”; a condition that tells them apart may be missing. Equal entries are not always repeated.
# Experiments:
# [1] = Solubility in organic solvents; format: physicochemical
# Method: (§1) The solubility of the compound of Example 1 in a range of organic solvents was measured. Solubility assays were performed by the sequential addition of the compound of Example 1 to an appropriate organic solvent while stirring vigorously until a precipitate is formed. The resulting suspension is then shaken for 24 hours at room temperature, filtered and the resulting solution was analyzed by appropriate analytical method. Quantitation was performed by comparison of the concentrations of the resulting solution of the compound of Example 1 to a single point calibration curve using a solution of the reference standard.
# [2] = Solubility in surfactant solutions; format: physicochemical
# Method: as §1, with “surfactants” for “organic solvents”
compound,measurement,setting,value
"C=Cc1cc(C(=O)Nc2ccc(C(=N)N)cc2)c(-c2ccc(C(=O)NCC3CC3)nc2C(=O)O)cc1OC [Example 1, 3-[2-(4-carbamimidoyl-phenylcarbamoyl)-5-methoxy-4-vinyl-phenyl]-6-(cyclopropylmethyl-carbamoyl)-pyridine-2-carboxylic acid]",Saturated concentration of Example 1,"[1]; Dimethyl acetamide, 40% solvent in water",12.9 mg/mL
same,Saturated concentration of Example 1,"[1]; Dimethyl acetamide, 60% solvent in water",24.8 mg/mL
same,Saturated concentration of Example 1,"[1]; Ethanol, 40% solvent in water",5.9 mg/mL
same,Saturated concentration of Example 1,"[1]; Ethanol, 60% solvent in water",21.8 mg/mL
same,Saturated concentration of Example 1,"[1]; Ethanol, 100%",23.9 mg/mL
same,Saturated concentration of Example 1,"[1]; Glycerol, 100%",5.5 mg/mL
same,Saturated concentration of Example 1,"[1]; N-Methyl-2-pyrrolidone, 100%, not saturated",>11 (not saturated) mg/mL
same,Saturated concentration of Example 1,"[1]; Polyethylene glycol 400, 40% solvent in water",11.9 mg/mL
same,Saturated concentration of Example 1,"[1]; Polyethylene glycol 400, 60% solvent in water",18.6 mg/mL
same,Saturated concentration of Example 1,"[1]; Polyethylene glycol 400, 100%",21.2 mg/mL
same,Saturated concentration of Example 1,"[1]; Propylene glycol, 40% solvent in water",2.67 mg/mL
same,Saturated concentration of Example 1,"[1]; Propylene glycol, 60% solvent in water",27.9 mg/mL
same,Saturated concentration of Example 1,"[1]; Propylene glycol, 100%",>55 mg/mL
same,Saturated concentration of Example 1,[2]; 3-[(3-Chloamidopropyl)-dimethylamino]-1-propanesulfate 1%,0.66 mg/mL
same,Saturated concentration of Example 1,[2]; D-alpha-tocopheryl-polyethylene glycol 1000 succinate 12.3% (in PEG 400),7.8 mg/mL
same,Saturated concentration of Example 1,[2]; D-alpha-tocopheryl-polyethylene glycol 1000 succinate 20% (in PEG 400),20.8 mg/mL
same,Saturated concentration of Example 1,[2]; Lecithin 2% (in water),1.2 mg/mL
same,Saturated concentration of Example 1,[2]; Lecithin 4% (in PEG 400),3.3 mg/mL
same,Saturated concentration of Example 1,[2]; Lecithin 4% (in water),2.2 mg/mL
same,Saturated concentration of Example 1,[2]; Lecithin 10% (in PEG 400),10.6 mg/mL
same,Saturated concentration of Example 1,[2]; Lecithin 10% (in water),3.1 mg/mL
same,Saturated concentration of Example 1,[2]; Octadecyl amine 1% (in PEG 400),7.8 mg/mL and 7.1 mg/mL
same,Saturated concentration of Example 1,[2]; Palmitoyl-carnitine chloride 0.10% (in water),0.3 mg/mL
same,Saturated concentration of Example 1,[2]; dioctyl sodium sulfosuccinate 1% in PEG400,1.72 mg/mL
same,Saturated concentration of Example 1,[2]; sodium lauryl sulphate 1% (in water),2.4 mg/mL
same,Saturated concentration of Example 1,[2]; sodium lauryl sulphate 2% (in water),4.7 mg/mL
same,Saturated concentration of Example 1,[2]; sodium lauryl sulphate 5% (in water),10 mg/mL
